Tests used:
[1] = tested on: mRNA expressed from the genes (A) to (D) in rat liver; experiment: Behavior of genes (mRNA expression level, oligo-DNA microarray) in rat liver after 28-day oral administration; format: in vivo; settings: rat, in vivo
Method in brief: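 Rat liver RNA after 28 days of daily gavage dosing (male F344, 5 weeks old, four per group). A change reaching 1.5-fold, or 1/1.5, against solvent control scores as significant; opposite direction versus another carcinogen scores as not significant.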

[2] = tested on: liver; settings: in vivo; cited from earlier work
[3] = tested on: rodent; settings: in vivo; cited from earlier work

OCCCl [TS032, 2-Chloroethanol]
Behavior of gene caused by administration of chemical substance, Gene No. 154 [1]: −
Behavior of gene caused by administration of chemical substance, Gene No. 533 [1]: −
Behavior of gene caused by administration of chemical substance, Gene No. 725 [1]: −
Behavior of gene caused by administration of chemical substance, Gene No. 813 [1]: −
Behavior of gene caused by administration of chemical substance, Gene No. 893 [1]: −
Behavior of gene caused by administration of chemical substance, Gene No. 1119 [1]: −
Behavior of gene caused by administration of chemical substance, Gene No. 1131 [1]: −
Behavior of gene caused by administration of chemical substance, Gene No. 1163 [1]: −
Behavior of gene caused by administration of chemical substance, Gene No. 1334 [1]: −
Behavior of gene caused by administration of chemical substance, Gene No. 1494 [1]: −
Behavior of gene caused by administration of chemical substance, Gene No. 1562 [1]: −
Behavior of gene caused by administration of chemical substance, Gene No. 1741 [1]: −
Behavior of gene caused by administration of chemical substance, Gene No. 1993 [1]: −
Behavior of gene caused by administration of chemical substance, Gene No. 2026 [1]: −
Behavior of gene caused by administration of chemical substance, Gene No. 2045 [1]: −
Behavior of gene caused by administration of chemical substance, Gene No. 2203 [1]: −
Behavior of gene caused by administration of chemical substance, Gene No. 2494 [1]: −
Behavior of gene caused by administration of chemical substance, Gene No. 2546 [1]: −
Behavior of gene caused by administration of chemical substance, Gene No. 3776 [1]: −
Behavior of gene caused by administration of chemical substance, Gene No. 3929 [1]: −
Behavior of gene caused by administration of chemical substance, Gene No. 4095 [1]: −
Behavior of gene caused by administration of chemical substance, Gene No. 4218 [1]: −
Behavior of gene caused by administration of chemical substance, Gene No. 4846 [1]: −
Behavior of gene caused by administration of chemical substance, Gene No. 4973 [1]: −
Behavior of gene caused by administration of chemical substance, Gene No. 5600 [1]: −
Behavior of gene caused by administration of chemical substance, Gene No. 5634 [1]: −
Behavior of gene caused by administration of chemical substance, Gene No. 5726 [1]: −
Behavior of gene caused by administration of chemical substance, Gene No. 5878 [1]: −
Behavior of gene caused by administration of chemical substance, Gene No. 6026 [1]: −
Behavior of gene caused by administration of chemical substance, Gene No. 6182 [1]: −
Behavior of gene caused by administration of chemical substance, Gene No. 6303 [1]: −
Behavior of gene caused by administration of chemical substance, Gene No. 6620 [1]: −
Behavior of gene caused by administration of chemical substance, Gene No. 6742 [1]: −
Liver carcinogenicity [2]: Cr−
Carcinogenicity [3]: C−

— patent publication US20110039721A1, “METHOD FOR PREDICTION ABOUT CARCINOGENICITY OF SUBSTANCE IN RODENT” (Chemicals Evaluation and Research Institute, priority 2007, published 2011)
